According to paper PMC9945734 (BMC Medicine, 2023):
Values joined by “and” are separate entries in the source; they are usually repeats but may differ in a detail not shown here. Equal values may be shown once.

Test system: PC-3-KQ and PC-3-KR cells
Assay: RNA-sequencing and differential gene expression
Format: cell-based, human
Parameters: CEP19 tpm_KQ_NTZ / CCNA1 tpm_KQ_NTZ / BTN3A3 tpm_KQ_NTZ / CAPSL tpm_KQ_NTZ / CELF3 tpm_KQ_NTZ / C5orf63 tpm_KQ_NTZ / tpm MSMP / tpm MYH7B / tpm CACNG8 / CNTNAP3B tpm_KQ_NTZ / IL21R tpm_KQ_NTZ / CYP8B1 tpm_KQ_NTZ / C2orf78 tpm_KQ_NTZ / CALB1 tpm_KQ_NTZ / COL4A3 tpm_KQ_NTZ / CFB tpm_KQ_NTZ / PFKFB1 tpm_KQ_NTZ / BTBD11 tpm_KQ_NTZ: scale not given here
Settings: PC-3-KQ cells with NTZ, RNA-Seq, listed as NTZ

CC(=O)Oc1ccccc1C(=O)Nc1ncc([N+](=O)[O-])s1 [Nitazoxanide]
NT5E tpm_KQ_NTZ (replicates 1-3): -0.3117 and -0.2802 and -0.3345 | NTF4 tpm_KQ_NTZ (replicates 1-3): -0.8704 and -0.4013 and -0.4312 | PADI3 tpm_KQ_NTZ (replicates 1-3): -0.6957 and -0.9817 and -0.9686 | PCDH18 tpm_KQ_NTZ (replicates 1-3): -1.061 and -0.1951 and -0.6677 | PDGFA tpm_KQ_NTZ (replicates 1-3): 0.404 and 0.3967 and 0.4405 | PDZK1 tpm_KQ_NTZ (replicates 1-3): -0.2414 and 0.3327 and -0.5574 | PEG10 tpm_KQ_NTZ (replicates 1-3): -0.4908 and -0.6617 and -1.075 | PFKFB1 tpm_KQ_NTZ (replicates 1-3): 0.1063 and -0.5815 and -0.9802 | PGAM4 tpm_KQ_NTZ (replicates 1-3): -1.18 and 0.2721 and 0.1017 | PHACTR3 tpm_KQ_NTZ (replicates 1-3): -0.9821 and -1.045 and -0.9733 | PHOSPHO2 tpm_KQ_NTZ (replicates 1-3): -0.6941 and -0.4899 and -0.4437 | PIANP tpm_KQ_NTZ (replicates 1-3): -0.9238 and -0.4554 and -0.5206 | PITPNM3 tpm_KQ_NTZ (replicates 1-3): 0.8488 and 0.3478 and 1.199 | PKIA tpm_KQ_NTZ (replicates 1-3): -0.2506 and -0.236 and -0.2863 | PRKAR1B tpm_KQ_NTZ (replicates 1-3): 0.4324 and 0.4514 and 0.7549 | PRKDC tpm_KQ_NTZ (replicates 1-3): 0.0232 and -0.08402 and -0.5624 | PROS1 tpm_KQ_NTZ (replicates 1-3): 0.5403 and 0.6849 and 0.6327 | PRR16 tpm_KQ_NTZ (replicates 1-3): -0.9713 and 0.1931 and -0.1646 | PRR29 tpm_KQ_NTZ (replicates 1-3): -0.06306 and -0.3085 and -0.2669 | PTPRR tpm_KQ_NTZ (replicates 1-3): 0.6595 and 1.295 and 0.9528 | RBL1 tpm_KQ_NTZ (replicates 1-3): -0.1965 and -0.4796 and -0.579 | RLN1 tpm_KQ_NTZ (replicates 1-3): -0.3286 and -1.073 and -1.143 | RMDN2 tpm_KQ_NTZ (replicates 1-3): 0.2344 and 0.5874 and -0.2937 | RND1 tpm_KQ_NTZ (replicates 1-3): 0.2005 and 0.3255 and 0.6944 | S100A6 tpm_KQ_NTZ (replicates 1-3): -0.1375 and -0.00541 and 0.1164 | SCG2 tpm_KQ_NTZ (replicates 1-3): 0.5158 and -0.04635 and -1.114 | SDCBP2 tpm_KQ_NTZ (replicates 1-3): 0.1173 and 0.1996 and 0.2731 | SERINC5 tpm_KQ_NTZ (replicates 1-3): 0.7977 and 0.7386 and 0.3271 | SERPINA3 tpm_KQ_NTZ (replicates 1-3): 0.1383 and 0.1648 and 0.1316 | SERPINB4 tpm_KQ_NTZ (replicates 1-3): -0.3324 and -0.2205 and -0.9332 | SERPIND1 tpm_KQ_NTZ (replicates 1-3): -1.101 and -0.7105 and -1.316 | SGK1 tpm_KQ_NTZ (replicates 1-3): -0.7129 and -0.3809 and -0.4182 | SHISA3 tpm_KQ_NTZ (replicates 1-3): -0.1615 and -0.01424 and -0.03964 | SLC1A1 tpm_KQ_NTZ (replicates 1-3): 0.007137 and 0.6447 and 0.4297 | SLC26A9 tpm_KQ_NTZ (replicates 1-3): -0.2744 and 0.2725 and -0.927 | SLC41A2 tpm_KQ_NTZ (replicates 1-3): 0.4534 and 0.4303 and 0.4488 | SLC44A4 tpm_KQ_NTZ (replicates 1-3): 0.5521 and 0.8689 and 0.6934 | SLC45A2 tpm_KQ_NTZ (replicates 1-3): 0.257 and 0.07385 and 0.3908 | SLITRK5 tpm_KQ_NTZ (replicates 1-3): 0.1465 and 0.3195 and -0.4377 | SMCO4 tpm_KQ_NTZ (replicates 1-3): 0.1432 and -0.08242 and 0.08549 | SPOCK2 tpm_KQ_NTZ (replicates 1-3): 0.7174 and 0.4246 and 1.38 | STK32A tpm_KQ_NTZ (replicates 1-3): -0.2617 and 0.04669 and 0.4294 | SYN3 tpm_KQ_NTZ (replicates 1-3): 0.4729 and 0.3702 and 0.1862 | TENM4 tpm_KQ_NTZ (replicates 1-3): 0.2992 and -0.3092 and -0.102 | TIMM8A tpm_KQ_NTZ (replicates 1-3): -0.8837 and -0.8279 and -0.9653 | TJP3 tpm_KQ_NTZ (replicates 1-3): 0.01147 and 0.1369 and 0.1215 | TMEM140 tpm_KQ_NTZ (replicates 1-3): 0.2484 and 0.4158 and -0.0465 | TMEM269 tpm_KQ_NTZ (replicates 1-3): 0.406 and 0.06998 and -0.4941 | TMOD1 tpm_KQ_NTZ (replicates 1-3): 1.342 and 1.235 and 0.499 | TMPRSS2 tpm_KQ_NTZ (replicates 1-3): 0.007165 (2×) and 0.0842 | TNFAIP8L2-SCNM1 tpm_KQ_NTZ (replicates 1-3): -0.5467 and -1.562 and 0.4492 | TNFRSF11B tpm_KQ_NTZ (replicates 1-3): -0.9649 and -1.078 and -1.224 | TSPAN18 tpm_KQ_NTZ (replicates 1-3): 0.09114 and -0.09342 and 0.05473 | TTC9 tpm_KQ_NTZ (replicates 1-3): 0.2094 and 0.2356 and 0.6409 | TTC30A tpm_KQ_NTZ (replicates 1-3): -0.04558 and -0.08793 and -0.6072 | TTC30B tpm_KQ_NTZ (replicates 1-3): -0.2207 and -0.5797 and -0.3178 | UST tpm_KQ_NTZ (replicates 1-3): 0.2599 and 0.1194 and -0.01732 | WHRN tpm_KQ_NTZ (replicates 1-3): 0.9053 and 0.8473 and 0.7758 | WNT4 tpm_KQ_NTZ (replicates 1-3): 0.9814 and 1.222 and 1.387 | WNT9A tpm_KQ_NTZ (replicates 1-3): 0.12 and -0.05504 and -0.01608 | ZFPM2 tpm_KQ_NTZ (replicates 1-3): -0.1773 and -0.1147 and -0.2406 | ZNF596 tpm_KQ_NTZ (replicates 1-3): -1.141 and -0.2632 and -0.6635 | tpm ABAT (replicates NTZ1-3): 1.268 and 0.9682 and 0.237 | tpm ADIRF (replicates NTZ1-3): -0.4477 and -0.5226 and -0.3352 | tpm ANKRD63 (replicates NTZ1-3): 0.1535 and -0.6652 and 0.3857 | tpm ANXA8 (replicates NTZ1-3): 0.9428 and 0.3454 and -1.083 | tpm ANXA8L1 (replicates NTZ1-3): -0.298 and -0.4234 and -0.7464 | tpm ARG2 (replicates NTZ1-3): 1.137 and 1.333 and 1.316 | tpm ATP2A3 (replicates NTZ1-3): 0.8036 (2×) and -0.2131 | tpm C11orf65 (replicates NTZ1-3): -1.057 and -0.2742 and -0.729 | tpm CACNG8 (replicates NTZ1-3): -0.5252 and -0.3048 and -0.9129 | tpm CAPN12 (replicates NTZ1-3): 0.129 and 0.1138 (2×) | tpm CD14 (replicates NTZ1-3): -1.105 and -0.7008 | tpm CGB5 (replicates NTZ1-3): 0.9167 and 0.2487 and 0.1354 | tpm CHPF2 (replicates NTZ1-3): 1.06 and 0.6508 and 0.6663 | tpm COL4A4 (replicates NTZ1-3): 0.03123 and -0.5371 and -0.2214 | tpm COL4A6 (replicates NTZ1-3): -0.1711 and -0.6593 and -0.6324 | tpm CXCL5 (replicates NTZ1-3): -0.4877 and -0.4195 and -0.4771 | tpm CYP1B1 (replicates NTZ1-3): 0.6593 and 0.4159 and 0.0748 | tpm CYP2E1 (replicates NTZ1-3): 0.3931 and 0.8042 and 0.2474
